These results are taken from PMC3970082 (FEBS Open Bio, 2014).

This experiment deals with T1, 5-aminopentaneamide amide hydrolase (Pseudomonas sp. TPU-A5, UniProt W6JNP2).
T1 sequence (W6JNP2 1-504): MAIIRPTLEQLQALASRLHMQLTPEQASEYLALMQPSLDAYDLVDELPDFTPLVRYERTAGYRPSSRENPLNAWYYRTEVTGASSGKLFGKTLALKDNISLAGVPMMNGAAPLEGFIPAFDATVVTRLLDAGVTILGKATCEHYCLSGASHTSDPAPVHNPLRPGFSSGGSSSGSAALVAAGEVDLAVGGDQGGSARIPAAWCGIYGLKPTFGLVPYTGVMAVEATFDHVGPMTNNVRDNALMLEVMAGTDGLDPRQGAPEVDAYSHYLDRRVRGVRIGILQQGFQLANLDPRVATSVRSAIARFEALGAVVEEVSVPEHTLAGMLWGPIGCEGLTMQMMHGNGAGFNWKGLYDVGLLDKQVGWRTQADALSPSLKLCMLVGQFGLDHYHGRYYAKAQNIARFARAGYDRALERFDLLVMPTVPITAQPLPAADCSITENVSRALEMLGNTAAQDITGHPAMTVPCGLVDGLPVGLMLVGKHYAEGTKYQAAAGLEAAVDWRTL
Put plainly: ammonia liberation. The class given is biochemical. Particulars: room temperature; purified fractions of native enzyme.

Molecules are shown by their SMILES.

As for `CCCCC(N)=O` [valeramide], the “ammonia liberation (indophenol reaction)” value is recorded as “assayed at room temperature by measuring the ammonia liberated from valeramide degradation”.
